# Measured values taken from PMC11930087, “Mobility of four structural regions drives isoform-specific properties of photoenzyme LPOR in plants” (The Journal of Biological Chemistry, 2025).
# Columns and labels:
# Assay in all cases: biochemical
# HaPOR1 = molecular target: T1, HaPOR1 (Helianthus annuus, UniProt A0A251T841); settings: 400 uM OPT lipids, 5 uM Pchlide, 15 uM LPOR
# T1 construct: gene PORA; transit peptide removed; pET15b
# T1 sequence (A0A251T841 64-398): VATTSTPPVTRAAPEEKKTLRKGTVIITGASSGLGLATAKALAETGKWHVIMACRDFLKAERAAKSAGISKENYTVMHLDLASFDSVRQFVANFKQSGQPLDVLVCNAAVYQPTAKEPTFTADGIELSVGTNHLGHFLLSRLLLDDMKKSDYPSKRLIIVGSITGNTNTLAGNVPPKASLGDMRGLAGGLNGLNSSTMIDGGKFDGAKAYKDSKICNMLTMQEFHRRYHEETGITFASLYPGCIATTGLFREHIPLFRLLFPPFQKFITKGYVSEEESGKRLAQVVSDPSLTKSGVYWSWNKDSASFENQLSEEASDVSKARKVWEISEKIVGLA
# Description: (§1) (Figs. 3A, S2). […] The resulting plots resembled saturation curves, to which a hyperbolic function similar to the Michaelis–Menten equation could be fitted (Figs. 3B, S3, Materials and Methods). […] However, KM^L values were consistently lower than KM^D values. […] The addition of 400 μM OPT lipids lowered the KM^D constant for all isoforms, except for SlPOR1, SlPOR3, HaPOR1, HaPOR2, and PeaPOR, where the constant remained unchanged within error estimates. […] Shaded areas represent the SD between replicates. […] A fit of a modified Michaelis–Menten equation is shown, along with the graphical representation of KM^D (B) or KM^L (C). Spectra corresponding to the given F648/F635 values (B) or F Chlide/F Pchlide values (C) are shown on the right side of the plot. D, relationship between KM^D and KM^L for investigated isoforms. The overall distribution of data points is shown in gray. Error bars represent the uncertainty associated with the fitted constant KM^x. Closed symbols represent constants determined for samples not supplemented with lipids, while open symbols these determined in the presence of 400 μM OPT lipids. LPOR, light-dependent protochlorophyllide oxidoreductase; Pchlide, protochlorophyllide; Chlide, chlorophyllide.
# HaPOR2 = molecular target: T2, HaPOR2 (Helianthus annuus, UniProt A0A251TWA4); settings: 5 uM Pchlide, 15 uM LPOR
# T2 construct: gene PORA; transit peptide removed; pET15b
# T2 sequence (A0A251TWA4 53-387): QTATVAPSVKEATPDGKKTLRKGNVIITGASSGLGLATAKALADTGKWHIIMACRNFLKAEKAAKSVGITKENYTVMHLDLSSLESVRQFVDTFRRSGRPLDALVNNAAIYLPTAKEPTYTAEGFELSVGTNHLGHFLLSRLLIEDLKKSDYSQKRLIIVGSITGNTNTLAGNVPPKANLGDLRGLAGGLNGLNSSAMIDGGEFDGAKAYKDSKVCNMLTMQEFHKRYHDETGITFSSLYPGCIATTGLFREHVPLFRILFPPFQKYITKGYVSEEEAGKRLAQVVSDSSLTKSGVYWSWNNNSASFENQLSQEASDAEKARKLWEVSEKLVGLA
# Description: as §1
# HaPOR3 = molecular target: T3, HaPOR3 (Helianthus annuus, UniProt A0A251UT40); settings: 400 uM OPT lipids, 5 uM Pchlide, 15 uM LPOR
# T3 construct: gene POR; transit peptide removed; pET15b
# T3 sequence (A0A251UT40 51-384): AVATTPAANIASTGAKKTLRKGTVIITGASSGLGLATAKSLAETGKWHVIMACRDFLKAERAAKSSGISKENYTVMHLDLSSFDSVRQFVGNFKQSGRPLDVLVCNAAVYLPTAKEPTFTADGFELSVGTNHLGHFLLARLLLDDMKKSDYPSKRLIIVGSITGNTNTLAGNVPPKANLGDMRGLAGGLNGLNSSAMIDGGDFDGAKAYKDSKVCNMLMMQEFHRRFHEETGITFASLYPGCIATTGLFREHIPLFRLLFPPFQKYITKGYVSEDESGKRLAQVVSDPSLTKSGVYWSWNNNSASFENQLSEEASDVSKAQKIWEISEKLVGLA
# Description: as §1
# PeaPOR = molecular target: T4, PeaPOR (Lathyrus oleraceus, UniProt Q01289); settings: 5 uM Pchlide, 15 uM LPOR
# T4 construct: gene 3PCR; transit peptide removed; pET15b
# T4 sequence (Q01289 65-399): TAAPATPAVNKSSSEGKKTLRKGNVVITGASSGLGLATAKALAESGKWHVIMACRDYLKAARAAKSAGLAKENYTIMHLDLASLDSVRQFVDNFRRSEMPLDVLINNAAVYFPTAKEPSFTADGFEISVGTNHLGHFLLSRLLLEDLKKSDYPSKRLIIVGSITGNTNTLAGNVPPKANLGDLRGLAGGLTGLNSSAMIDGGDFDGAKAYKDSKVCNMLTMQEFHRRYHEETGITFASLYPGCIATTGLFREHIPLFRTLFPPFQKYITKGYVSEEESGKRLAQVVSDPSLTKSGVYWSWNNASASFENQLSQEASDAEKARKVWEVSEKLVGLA
# Description: as §1
# PinPOR = molecular target: T5, PinPOR (Pinus mugo, UniProt Q41202); settings: 5 uM Pchlide, 15 uM LPOR
# T5 construct: transit peptide removed; pET15b
# T5 sequence (Q41202 67-400): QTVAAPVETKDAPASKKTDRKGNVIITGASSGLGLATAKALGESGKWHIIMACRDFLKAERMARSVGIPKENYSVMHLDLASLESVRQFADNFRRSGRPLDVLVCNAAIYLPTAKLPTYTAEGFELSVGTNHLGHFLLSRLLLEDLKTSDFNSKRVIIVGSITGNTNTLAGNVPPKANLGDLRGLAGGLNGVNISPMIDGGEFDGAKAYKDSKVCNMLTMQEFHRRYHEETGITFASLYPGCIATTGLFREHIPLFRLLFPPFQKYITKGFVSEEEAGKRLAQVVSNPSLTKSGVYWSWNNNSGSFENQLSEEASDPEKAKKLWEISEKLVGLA
# Description: as §1
# TaPOR1 = molecular target: T6, TaPOR1 (Triticum aestivum, UniProt Q41578); settings: 5 uM Pchlide, 15 uM LPOR
# T6 construct: gene PORA
# T6 sequence (Q41578 75-388): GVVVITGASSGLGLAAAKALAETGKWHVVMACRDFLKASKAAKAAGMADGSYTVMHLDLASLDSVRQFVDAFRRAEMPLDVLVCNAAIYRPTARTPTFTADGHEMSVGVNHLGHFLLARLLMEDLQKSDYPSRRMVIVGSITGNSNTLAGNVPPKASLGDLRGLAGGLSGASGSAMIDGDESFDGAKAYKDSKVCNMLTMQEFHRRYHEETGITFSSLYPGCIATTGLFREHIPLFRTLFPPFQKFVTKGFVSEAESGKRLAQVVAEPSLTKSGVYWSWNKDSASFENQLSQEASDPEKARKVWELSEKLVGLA
# Description: as §1
smiles,measurement,setting,value
NC(=O)C1=CN([C@@H]2O[C@H](COP(=O)(O)OP(=O)(O)OC[C@H]3O[C@@H](n4cnc5c(N)ncnc54)[C@H](OP(=O)(O)O)[C@@H]3O)[C@@H](O)[C@H]2O)C=CC1 [NADPH],apparent Michaelis constant KM^D (dark),HaPOR1,16.9 µM
same,Dark Michaelis-like constant (KM^D),HaPOR2; 400 uM OPT lipids,2.2 µM
same,apparent Michaelis constant in the dark (KM^D),HaPOR2; no lipids,9.4 µM
same,apparent Michaelis constant in dark (KM^D),HaPOR3,3.9 µM
same,apparent Michaelis constant in the dark (KM^D),PeaPOR; 400 uM OPT lipids,4.7 µM
same,Michaelis constant in the dark (KM^D),PeaPOR; no lipids,10.8 µM
same,"Michaelis constant, dark (KM^D)",PinPOR; 400 uM OPT lipids,1.3 µM
same,apparent Michaelis constant in dark (KM^D),PinPOR; no lipids,4.3 µM
same,"Km (apparent, dark, KM^D)",TaPOR1; 400 uM OPT lipids,45.8 µM
same,apparent Michaelis constant (KM^D),"TaPOR1; no lipids, dark",394 µM
